This note sets out measurements from patent US11344517B2, “Injectable supersaturated acetaminophen solution for spinal administration” (priority 2012, dated 2022).

≈ marks a conversion by molar mass, not a printed value. Where “and” joins values, the source holds several entries; their conditions need not be identical. Equal values may be shown once.

A short description of data set [1]: Solubility of acetaminophen at 20° C. It is filed as physicochemical. The conditions noted are these: water.
Data set [2] concerns post-surgical pain in rats. Format: in vivo. The conditions noted are these: 4 hours after the incision, IT acetaminophen 200 μg, chloroprocaine 3% 20 μL; for pain threshold following mechanical stimulation: individual animals. On the procedure: The efficacy of the acetaminophen supersaturated solution administered by spinal administration (IT) was tested with explorative experiments in a model of post-surgical pain in rats in combination with a solution of chloroprocaine 3%.
The post-surgical pain was induced by means of incision and subsequent suture of the subplantar region of the rear left paw, as described by Timothy J. Brennan (1996).
The pain threshold following mechanical stimulation (expressed in grams) was measured 4 hours after the incision. Complete reduction of the anaesthetic effect of the spinal chloroprocaine is expected within this period of time. The reduction of the pain threshold is considered to be an indicator of pain and hyperalgesia of the zone affected by surgical intervention.

Data set [3] concerns oedema at the site of inflammation induced by carrageenan. The experiment in a line: Development of oedema (paw volume), carrageenan model. Format: in vivo, mice. The conditions noted are these: for Paw volume (oedema): mice, individual animals. How it is done: The efficacy of the acetaminophen supersaturated solution administered by spinal administration (IT) was tested by means of explorative experiments in a model of inflammatory pain in mice, induced by means of intraplantar injection (injection in the rear left paw, referred to hereinafter as the “site of inflammation”) of carrageenan (50 μl 1%).
The development of oedema at the site of inflammation was measured and expressed as an increase of volume (mL) of the site of inflammation.
Spinal administration in the mouse was carried out as described by Fairbanks (2003).

Data set [4] relates to post-surgical pain in rats. It is filed as in vivo. The conditions noted are these: IT chloroprocaine 3% 20 μL, after 4 hours.

On to `CC(=O)Nc1ccc(O)cc1` [Acetaminophen, acetyl-p-aminophenol], for which the solubility in data set [1] was around 13 mg/mL (≈ 86 mM). Also, the “pain threshold following mechanical stimulation” value in data set [2] was 22.75 grams and 24.90 grams and 24.00 grams and 28.00 grams and 38.75 grams. Also, the “Paw volume (oedema)” value in data set [3] (10 μg IT, 2 hours after carrageenan) is 0.43 mL and 0.36 mL (2×) and 0.38 mL and 0.37 mL (2×) and 0.44 mL; in data set [3] (10 μg IT, 4 hours after carrageenan), 0.39 mL and 0.36 mL and 0.34 mL and 0.38 mL and 0.44 mL (2×) and 0.41 mL; in data set [3] (10 μg IT, 6 hours after carrageenan), 0.44 mL and 0.38 mL and 0.33 mL (2×) and 0.37 mL and 0.45 mL and 0.36 mL; in data set [3] (10 μg IT, 24 hours after carrageenan), 0.47 mL and 0.4 mL and 0.46 mL and 0.37 mL and 0.5 mL and 0.42 mL (2×); in data set [3] (10 μg IT, basal) it was 0.29 mL (2×) and 0.24 mL and 0.2 mL and 0.21 mL and 0.26 mL and 0.22 mL; in data set [3] (100 μg IT, 2 hours after carrageenan) it was 0.32 mL and 0.34 mL and 0.33 mL (3×) and 0.37 mL and 0.36 mL. Further, the “Paw volume (oedema)” value is 0.35 mL (2×) and 0.37 mL and 0.38 mL (2×) and 0.36 mL and 0.34 mL in data set [3] (100 μg IT, 4 hours after carrageenan); 0.38 mL (2×) and 0.4 mL (2×) and 0.39 mL and 0.43 mL and 0.35 mL in data set [3] (100 μg IT, 6 hours after carrageenan); 0.33 mL and 0.41 mL and 0.42 mL and 0.44 mL and 0.47 mL and 0.45 mL and 0.46 mL in data set [3] (100 μg IT, 24 hours after carrageenan); 0.27 mL and 0.28 mL and 0.29 mL and 0.24 mL and 0.26 mL and 0.25 mL and 0.18 mL in data set [3] (100 μg IT, basal). Further, in data set [3] (100 μg per mouse IT, first two hours following induction), the “reduction of the development of oedema at the site of inflammation” value was “approximately 20%”.
For `CCN(CC)CCOC(=O)c1ccc(N)cc1Cl` [Chloroprocaine, chloroprocaine], the “recovery of walking and tension of the rear limbs” value in data set [4] was “complete recovery in terms of walking and tension of the rear limbs”. Also, in data set [2], the “effect on pain threshold / post-surgical pain” value was “did not change the pain threshold”; the “pain threshold following mechanical stimulation” value is 23.60 grams and 22.75 grams and 19.75 grams and 24.25 grams.
